In patent US10174029B2, “Pyrimidine-2,4-diamine derivatives for treatment of cancer” (THOMAS HELLEDAYS STIFTELSE FOR MEDICINSK FORSKNING, priority 2012, dated 2019):

What follows are molecules tested against MTH1 (Homo sapiens, UniProt P36639) (assay: MTH1 enzymatic assay and IC50 value determination (malachite green)). Conditions: MTH1 4.8 nM, dGTP 100 μM, 15 minutes at 22° C.; group: between 2 μM and 10 μM.
Type: biochemical
Summary of the method: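 Malachite green detection of Pi after coupling dGTP hydrolysis to excess E. coli pyrophosphatase; 4.8 nM MTH1, 100 μM dGTP in Tris-acetate buffer with Mg2+ and DTT, 1% DMSO, 15 min at 22 °C. 12-point 1:3 compound series; absorbance at 630 nm; IC50 by four-parameter nonlinear regression.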
`CCOC(=O)CNc1cc(-c2cccc(C)c2C)nc(N)n1` [Example 396, Ethyl 2-{[2-amino-6-(2,3-dimethylphenyl)pyrimidin-4-yl]amino}acetate] was tested, and the IC50 was 2000 to 10000 nM. Work on `Cc1nnc(CNc2cc(-c3cccc(C)c3C)nc(N)n2)[nH]1` [Example 399, 6-(2,3-Dimethylphenyl)-4-N-[(5-methyl-4H-1,2,4-triazol-3-yl)methyl]pyrimidine-2,4-diamine] yielded an IC50 of 2000 to 10000 nM.

Same assay, conditions: MTH1 4.8 nM, dGTP 100 μM, 15 minutes at 22° C.; group: less than 200 nM
`Cc1cccc(-c2cc(NCC3CCCN(c4ncccn4)C3)nc(N)n2)c1C` (centres unmarked) [Example 350, 6-(2,3-Dimethylphenyl)-4-N-{[1-(pyrimidin-2-yl)piperidin-3-yl]methyl}pyrimidine-2,4-diamine] was tested, and the IC50 was under 200 nM. Molecule `COc1ccc2nc(CCNc3cc(-c4cccc(C)c4C)nc(N)n3)[nH]c2c1` [Example 351, 6-(2,3-Dimethylphenyl)-4-N-[2-(6-methoxy-1H-1,3-benzodiazol-2-yl)ethyl]pyrimidine-2,4-diamine] has an IC50 of under 200 nM. `Cc1cccc(-c2cc(NCCCNS(=O)(=O)c3c(C)noc3C)nc(N)n2)c1C` [Example 359, N-(3-{[2-Amino-6-(2,3-dimethylphenyl)pyrimidin-4-yl]amino}propyl)-3,5-dimethyl-1,2-oxazole-4-sulfonamide] was tested, and the IC50 was under 200 nM. `Cc1cccc(-c2cc(NCCCNC(=O)Nc3cc(Cl)nc(Cl)c3)nc(N)n2)c1C` [Example 361, 3-(3-{[2-Amino-6-(2,3-dimethylphenyl)pyrimidin-4-yl]amino}propyl)-1-(2,6-dichloropyridin-4-yl)urea] showed an IC50 of under 200 nM. In the case of `CC(=O)Nc1cccc(OCCCNc2cc(-c3cccc(C)c3C)nc(N)n2)c1` [Example 363, N-[3-(3-{[2-Amino-6-(2,3-dimethylphenyl)pyrimidin-4-yl]amino}propoxy)phenyl]acetamide], the IC50 is reported as under 200 nM. `Cc1cccc(-c2cc(NCCCNC(=O)c3cccc(Br)c3)nc(N)n2)c1C` [Example 367, N-(3-{[2-Amino-6-(2,3-dimethylphenyl)pyrimidin-4-yl]amino}propyl)-3-bromobenzamide] showed an IC50 of under 200 nM. For `Cc1cccc(-c2cc(NCCCNS(=O)(=O)c3cccc(C#N)c3)nc(N)n2)c1C` [Example 374, N-(3-{[2-Amino-6-(2,3-dimethylphenyl)pyrimidin-4-yl]amino}propyl)-3-cyanobenzene-1-sulfonamide], the IC50 was under 200 nM. For `Cc1cccc(-c2cc(NCCCNS(=O)(=O)c3ccccc3)nc(N)n2)c1C` [Example 376, N-(3-{[2-Amino-6-(2,3-dimethylphenyl)pyrimidin-4-yl]amino}propyl)benzenesulfonamide], the IC50 was under 200 nM. `C=CCNc1cc(-c2cccc(C)c2C)nc(N)n1` [Example 379, 6-(2,3-Dimethylphenyl)-4-N-(prop-2-en-1-yl)pyrimidine-2,4-diamine] showed an IC50 of under 200 nM. Molecule `Cc1cccc(-c2cc(NCCCNS(=O)(=O)c3cccc(F)c3)nc(N)n2)c1C` [Example 381, N-(3-{[2-Amino-6-(2,3-dimethylphenyl)pyrimidin-4-yl]amino}propyl)-3-fluorobenzene-1-sulfonamide] has an IC50 of under 200 nM. `C#CCNc1cc(-c2cccc(C)c2C)nc(N)n1` [Example 386, 6-(2,3-Dimethylphenyl)-4-N-(prop-2-yn-1-yl)pyrimidine-2,4-diamine] gave an IC50 of under 200 nM. `Cc1cccc(-c2cc(NCCCNS(=O)(=O)c3c(C)nn(C)c3Cl)nc(N)n2)c1C` [Example 389, N-(3-{[2-Amino-6-(2,3-dimethylphenyl)pyrimidin-4-yl]amino}propyl)-5-chloro-1,3-dimethyl-1H-pyrazole-4-sulfonamide] showed an IC50 of under 200 nM. `Cc1cccc(-c2cc(NCCCNS(=O)(=O)c3cn(C)c(C)n3)nc(N)n2)c1C` [Example 391, N-(3-{[2-Amino-6-(2,3-dimethylphenyl)pyrimidin-4-yl]amino}propyl)-1,2-dimethyl-1H-imidazole-4-sulfonamide] was tested, and the IC50 was under 200 nM. For `Cc1cccc(-c2cc(NCCNc3ccc(C#N)cn3)nc(N)n2)c1C` [Example 397, 6-[(2-{[2-Amino-6-(2,3-dimethylphenyl)pyrimidin-4-yl]amino}ethyl)amino]pyridine-3-carbonitrile], the IC50 was under 200 nM. For `Cc1cccc(-c2cc(NCCCNS(=O)(=O)c3cccc(S(C)(=O)=O)c3)nc(N)n2)c1C` [Example 402, N-(3-{[2-Amino-6-(2,3-dimethylphenyl)pyrimidin-4-yl]amino}propyl)-3-methanesulfonylbenzene-1-sulfonamide], the IC50 was under 200 nM. `Cc1cccc(-c2cc(NCCCNS(=O)(=O)c3ccccc3S(C)(=O)=O)nc(N)n2)c1C` [Example 403, N-(3-{[2-Amino-6-(2,3-dimethylphenyl)pyrimidin-4-yl]amino}propyl)-2-methanesulfonylbenzene-1-sulfonamide] gave an IC50 of under 200 nM. In the case of `Cc1ncsc1CCNc1cc(-c2cccc(Cl)c2Cl)nc(N)n1` [Example 405, 6-(2,3-dichlorophenyl)-4-N-[2-(4-methyl-1,3-thiazol-5-yl)ethyl]pyrimidine-2,4-diamine], the IC50 is reported as under 200 nM. In the case of `Cc1ncsc1CCNc1cc(-c2cccc(Cl)c2C)nc(N)n1` [Example 406, 6-(3-chloro-2-methylphenyl)-4-N-[2-(4-methyl-1,3-thiazol-5-yl)ethyl]pyrimidine-2,4-diamine], the IC50 is reported as under 200 nM. In the case of `Cc1cccc(-c2cc(NCCc3c[nH]cn3)nc(N)n2)c1C` [Example 408, 6-(2,3-dimethylphenyl)-4-N-[2-(1H-imidazol-4-yl)ethyl]pyrimidine-2,4-diamine], the IC50 is reported as under 200 nM. `Cc1cccc(-c2cc(NCCCc3nc4ccccc4[nH]3)nc(N)n2)c1C` [Example 409, 4-N-[3-(1H-1,3-benzodiazol-2-yl)propyl]-6-(2,3-dimethylphenyl)pyrimidine-2,4-diamine] was tested, and the IC50 was under 200 nM. `Cc1cccc(-c2cc(NCc3cnc(-c4ccccc4)s3)nc(N)n2)c1C` [Example 411, 6-(2,3-dimethylphenyl)-4-N-[(2-phenyl-1,3-thiazol-5-yl)methyl]pyrimidine-2,4-diamine] gave an IC50 of under 200 nM. `CN(C)S(=O)(=O)c1ccc(CCNc2cc(-c3cccc(Cl)c3Cl)nc(N)n2)cc1` [Example 415, 4-(2-{[2-amino-6-(2,3-dichlorophenyl)pyrimidin-4-yl]amino}ethyl)-N,N-dimethylbenzene-1-sulfonamide] gave an IC50 of under 200 nM. `Cc1cccc(-c2cc(NCCc3ccc(S(=O)(=O)N(C)C)cc3)nc(N)n2)c1C` [Example 416, 4-(2-{[2-amino-6-(2,3-dimethylphenyl)pyrimidin-4-yl]amino}ethyl)-N,N-dimethylbenzene-1-sulfonamide] was tested, and the IC50 was under 200 nM. `Nc1nc(NC2CC2)cc(-c2ccc(Cl)c(Cl)c2Cl)n1` [Example 418, 4-N-Cyclopropyl-6-(2,3,4-trichlorophenyl)pyrimidine-2,4-diamine] was tested, and the IC50 was under 200 nM. For `Nc1nc(NCCc2ccc(Cl)cc2)cc(-c2ccc(Cl)c(Cl)c2Cl)n1` [Example 419, 4-N-[2-(4-Chlorophenyl)ethyl]-6-(2,3,4-trichlorophenyl)pyrimidine-2,4-diamine], the IC50 was under 200 nM. With `[2H]C([2H])([2H])Nc1cc(-c2cccc(C)c2C)nc(N)n1` [Example 420, 6-(2,3-dimethylphenyl)-4-N—(^2H3)methylpyrimidine-2,4-diamine] the IC50 was under 200 nM. With `[2H]C([2H])([2H])Nc1cc(-c2cccc(C)c2Cl)nc(N)n1` [Example 422, 6-(2-chloro-3-methylphenyl)-4-N—(^2H3)methylpyrimidine-2,4-diamine] the IC50 was under 200 nM.
